Laboratory results: patent US11957931B2, “Compositions and methods for treating vitiligo” (YALE UNIVERSITY, priority 2017, dated 2024)
Like-named read-outs stand apart in the source and are kept apart here. Marks after values point to notes of the source that are not given here.

Legend:
patients with vitiligo [1] = assay: Retrospective case series of vitiligo patients treated with tofacitinib: BSA of depigmentation / repigmentation; type: in vivo, human; set-up: key to Responder Status: R, responder; NR, non-responder
Excerpt: (§3) This study is a retrospective case series of 10 patients seen between July 2014 and January 2017. […] Clinical and demographic information, including biological sex, age, disease duration and course, medical history, family history, and prior treatments were collected. Before initiating tofacitinib, all patients underwent baseline laboratory evaluation including comprehensive metabolic panel, complete blood cell count with differential, fasting lipid panel, QuantiFERON-TB Gold® ([…] Limited, Melbourne, Australia), and screening for HIV and hepatitis B and C. Body surface area (BSA) of depigmentation was assessed prior to and at the end of treatment. Serial laboratory monitoring, physical exams, and review of systems were used to monitor for adverse events.

patients with vitiligo [2] = assay: Adverse event monitoring in the case series (laboratory monitoring, physical exams, review of systems); type: in vivo, human
Excerpt: as §3

CD8^+ T cells = assay: Suction blister sampling, flow cytometry of CD8+ T cells in blister fluid; type: in vivo, human; settings: Patient 1; after 10 months of tofacitinib vs baseline; responding, non-responding and non-lesional sites
Experimental: The Negative Pressure Instrument Model NP-4 (Electronic Diversities®, Finksburg, MD) was used to induce suction blisters (1 cm in diameter). Blisters formed at a pressure between 10-15 mm Hg negative pressure and at a constant temperature of 40° C. Once blisters formed, the blister fluid was aspirated 135 through the roof using a 1 mL insulin syringe. Cells in the blister fluid were pelleted at 330×g for 10 minutes and prepared for flow cytometry. […] Cells were blocked with Human TruStain and incubated with an antibody cocktail for 30 minutes at 4° C. Anti-human CD45 (2D1) and CD8 (SK1) were used at 1:20 dilution. Anti-human CD3 (OKT3) was used at 1:200 dilution (BioLegend) and Fixable Viability Dye eFluor 455UV at 1:1000 (Ebioscience).

CXCL9 = CXCL9 ELISA of blister fluid and serum; type: in vivo, human; settings: Patient 1; following treatment
Experimental: (§1) The Negative Pressure Instrument Model NP-4 (Electronic Diversities®, Finksburg, MD) was used to induce suction blisters (1 cm in diameter). Blisters formed at a pressure between […] negative pressure and at a constant temperature of 40° C. Once blisters formed, the blister fluid was aspirated […] through the roof using a 1 mL insulin syringe. Cells in the blister fluid were pelleted at 330×g for 10 minutes and prepared for flow cytometry. The supernatant of the blister fluid was stored at −80° C. until analysis by enzyme-linked immunosorbent-assays (ELISA) for chemokines. None of the blisters were hemorrhagic.
(§2) Chemokines were assayed using the Human CXLC9/MIG DuoSet ELISA (DY392) and Human CXCL10/IP-10 DuoSet ELISA (DY266, R&D Systems) per the manufacturer's instructions. Optical densities were measured using a Perkin Elmer EnVision 2102® multilabel reader and analyzed using a 4 parameter […] standard curve.

CXCL10 = CXCL10 ELISA of blister fluid and serum; type: in vivo, human; settings: Patient 1; following treatment
Experimental: as §1, §2

[3] = test system: melanocyte-specific T cells (HLA pentamer positive); settings: Patient 1; after treatment vs baseline
Experimental: Cells were blocked with Human TruStain and incubated with an antibody cocktail for 30 minutes at 4° C. Anti-human CD45 (2D1) and CD8 (SK1) were used at 1:20 dilution. Anti-human CD3 (OKT3) was used at 1:200 dilution (BioLegend) and Fixable Viability Dye eFluor 455UV at 1:1000 (Ebioscience).

patients with vitiligo [4] = test system: patients with vitiligo
[5] = Patient 1, earlier course, 5 mg daily, over 5 months
[6] = Patient 2, 5 mg twice daily, after 8 months
[7] = Patient 3, 5 mg twice daily plus nbUVB 150 mJ every other day, after 11 months
[8] = Patient 4, after 14 months of therapy
[9] = Case 1, 5 mg twice daily plus full-body narrowband UV-B (400-500 mJ) twice weekly, after 3 months
[10] = Cases 1 and 2, at last follow-up

C[C@@H]1CCN(C(=O)CC#N)C[C@@H]1N(C)c1ncnc2[nH]ccc12 [tofacitinib, 3-((3R,4R)-4-methyl-3-(methyl(7H-pyrrolo[2,3-d]pyrimidin-4-yl)amino)piperidin-1-yl)-3-oxopropanenitrile]
Responder Status (patients with vitiligo [1]; Patient 1): R | repigmentation at other body sites, including the trunk (patients with vitiligo [1]; [5]): only minimal repigmentation | repigmentation of face, forearms and dorsal hands (patients with vitiligo [1]; [5]): near complete repigmentation | repigmentation on re-treatment (patients with vitiligo [1]; Patient 1, 5 mg daily over 6 months, started in late spring): repigmentation of the face, forearms and dorsal hands, and the upper back and shoulders, but not the lower back or other sun-protected body sites | BSA after to tofacitinib (patients with vitiligo [1]; Patient 1, BSA prior to tofacitinib 10%, treatment duration 10 months): 4% | course after stopping tofacitinib (patients with vitiligo [1]; Patient 1, tofacitinib stopped for 8 months, areas that had previously responded): depigmentation recurred | Responder Status (patients with vitiligo [1]; Patient 2): R | repigmentation of dorsal hands and lower legs (patients with vitiligo [1]; [6]): islands of repigmentation | repigmentation of face, neck (not submental area) and forearms (patients with vitiligo [1]; [6]): near-complete repigmentation | sun-protected body sites (patients with vitiligo [1]; [6]): remained unchanged | repigmentation of face, lateral and posterior neck, and forearms (patients with vitiligo [1]; Patient 2, 5 mg twice daily, over 3 months, sun exposure): partial repigmentation | BSA after to tofacitinib (patients with vitiligo [1]; Patient 2, BSA prior to tofacitinib 28%, treatment duration 8 months): 24% | maintenance of repigmentation (patients with vitiligo [1]; Patient 2, while taking tofacitinib during the winter, minimal sunlight exposure): Repigmentation was maintained | Responder Status (patients with vitiligo [1]; Patient 3): R | repigmentation of all other body sites (patients with vitiligo [1]; [7]): innumerable islands of repigmentation | repigmentation of the back (patients with vitiligo [1]; [7]): > 75% | repigmentation of the face (patients with vitiligo [1]; [7]): complete repigmentation | BSA after to tofacitinib (patients with vitiligo [1]; Patient 3, BSA prior to tofacitinib 39%, treatment duration 11 months, concomitant nbUVB): 24% | Responder Status (patients with vitiligo [1]; Patient 4): R | BSA after to tofacitinib (patients with vitiligo [1]; Patient 4, BSA prior to tofacitinib 10%, treatment duration 14 months): 8% | repigmentation of hands and sun-protected body sites (patients with vitiligo [1]; [8]): neither the hands nor sun-protected body sites, however, showed evidence of repigmentation | repigmentation of the face (patients with vitiligo [1]; [8]): near-complete repigmentation | Responder Status (patients with vitiligo [1]; Patient 5): R | response of vitiligo to tofacitinib alone (patients with vitiligo [1]; Patient 5, 5-10 mg twice daily for 1 year, before nbUVB, hands disguised with makeup): unresponsive | BSA after to tofacitinib (patients with vitiligo [1]; Patient 5, BSA prior to tofacitinib 2%, treatment duration 10 months, islands of repigmentation after 12 nbUVB treatments did not change BSA appreciably): 2%* | repigmentation after adding nbUVB hand phototherapy (patients with vitiligo [1]; Patient 5, concomitant nbUVB, approximately 12 treatments (most recent dose 350 mJ)): islands of repigmentation were apparent | Responder Status (patients with vitiligo [1]; Patient 6): NR | BSA after to tofacitinib (patients with vitiligo [1]; Patient 6, BSA prior to tofacitinib 7%, treatment duration 3 months): 7% | Responder Status (patients with vitiligo [1]; Patient 7): NR | BSA after to tofacitinib (patients with vitiligo [1]; Patient 7, BSA prior to tofacitinib 1%, treatment duration 9 months): 1% | Responder Status (patients with vitiligo [1]; Patient 8): NR | BSA after to tofacitinib (patients with vitiligo [1]; Patient 8, BSA prior to tofacitinib 4%, treatment duration 15 months): 4% | Responder Status (patients with vitiligo [1]; Patient 9): NR | BSA after to tofacitinib (patients with vitiligo [1]; Patient 9, BSA prior to tofacitinib 6%, treatment duration 4 months): 6% | Responder Status (patients with vitiligo [1]; Patient 10): NR | BSA after to tofacitinib (patients with vitiligo [1]; Patient 10, BSA prior to tofacitinib 100%, treatment duration 11 months): 100% | mean decrease of BSA involvement with vitiligo (patients with vitiligo [1]; in 5/10 patients, tofacitinib 5-10 mg QD-BID, average 9.5 months): 5.4 % BSA | overall finding: repigmentation and light exposure (patients with vitiligo [1]; sunlight or nbUVB phototherapy): only led to repigmentation when there was concomitant light exposure | repigmentation (patients with vitiligo [1]; the other 5 of 10 patients, tofacitinib 5-10 mg QD-BID): did not achieve any repigmentation | serious adverse events (patients with vitiligo [2]; 10 patients): no serious adverse events | adverse events overall (patients with vitiligo [2]; in vivo): mild and infrequent | arthralgias (patients with vitiligo [2]; of 10 patients): one patient reported arthralgias | mild elevations of lipids (patients with vitiligo [2]; of 10 patients): 4 patients | upper respiratory infection (most common side effect) (patients with vitiligo [2]; of 10 patients): 2 patients | weight gain (patients with vitiligo [2]; reported by one patient of 10): 5 pounds | CD8+ T cell number in blister fluid (CD8^+ T cells): absolute numbers in each site were reduced | CXCL9 level in blister fluid (CXCL9): undetectable | CXCL9 level in serum (CXCL9): undetectable | CXCL10 level in blister fluid (CXCL10): undetectable | CXCL10 level in serum (CXCL10): undetectable | percentage of melanocyte-specific T cells (HLA pentamer positive) in PBMCs [3]: did not change with tofacitinib treatment, and even increased slightly | repigmentation of neck, chest, forearms and shins (patients with vitiligo [4]; [9]): ≥ 75% | repigmentation of the dorsal hands (patients with vitiligo [4]; [9]): only minimal freckling | repigmentation of the face (patients with vitiligo [4]; [9]): nearly complete repigmentation | repigmentation of the face (patients with vitiligo [4]; Case 2, 5 mg twice daily plus narrowband UV-B (360-500 mJ) 2 to 3 times weekly to only the face, after 3 months): about 50% | facial repigmentation (patients with vitiligo [4]; Case 2, 5 mg twice daily plus narrowband UV-B (360-500 mJ) 2 to 3 times weekly to only the face, after 6 months): about 75% | repigmentation at the other body sites (no UV-B) (patients with vitiligo [4]; Case 2, 5 mg twice daily, narrowband UV-B to only the face): No repigmentation occurred | adverse effects (patients with vitiligo [4]; [10]): no adverse effects | complete blood cell count, liver function tests, serum creatinine, fasting lipids (patients with vitiligo [4]; [10]): no abnormalities
